Patent US20020090380A1, “Novel formulation comprising thymol useful in the treatment of drug resistant bacterial infections” (priority 2000, published 2002)
Read-outs that look alike come from different tables or passages of the source.

Tests used:
Type in all cases: cell-based
[1] = tested on: Escherchia coli strain CA8000; test: organism not typed; settings: for zone of inhibition at 50 µg/disc: 50 μg/disc; for zone of inhibition at 100 µg/disc: 100 μg/disc
From the text: Activity of the Compound of the Present Invention Thymol at Different pH in Escherchia coli Strain CA8000
The above table clearly indicate that the activity of the present compound is maximum at neutral pH (7.00).

[2] = tested on: lomefloxacin resistant mutants of Mycobacterium smegmatis; test: microbe, parasite or virus in culture; settings: Mycolicibacterium smegmatis; for zone of inhibition at 100 µg/disc: 100 μg/disc
[3] = tested on: E. coli strain CA8000 (wild type); test: microbe, parasite or virus in culture; settings: Escherichia coli
[4] = tested on: E. coli cells; test: Disk diffusion assay, synergistic effect of thymol with Mentha hybrid oil; settings: Escherichia coli; thymol 50 μg/disc
[5] = tested on: Mycobacterium smegmatis wild type strain MC^2; test: microbe, parasite or virus in culture; settings: Mycolicibacterium smegmatis
[6] = tested on: nalidixic acid resistant mutants of Escherichia coli; test: microbe, parasite or virus in culture; settings: for inhibition zones / zone of inhibition at 50 µg/disc: 50 μg/disc; for zone of inhibition at 100 µg/disc / zone of inhibition at 250 µg/disc / zone of inhibition at 50 µg/disc: Escherichia coli; for zone of inhibition at 100 µg/disc: 100 μg/disc; for zone of inhibition at 250 µg/disc: 250 μg/disc
[7] = tested on: E. coli CAO3 (revert); test: microbe, parasite or virus in culture; settings: Escherichia coli, read-out: inhibition zones
[8] = tested on: lomefloxacin resistant mutants of Escherichia coli; test: microbe, parasite or virus in culture
[9] = tested on: E. coli strain DH5α (gyr mutation); test: microbe, parasite or virus in culture; settings: Escherichia coli
[10] = tested on: multidrug resistant bacteria
[11] = tested on: E. coli strain ET8000 (gyr mutation); test: microbe, parasite or virus in culture; settings: Escherichia coli
[12] = tested on: E. coli CAO3; test: microbe, parasite or virus in culture; settings: Escherichia coli, CAO3, read-out: inhibition zones
[13] = tested on: Ethidium bromide resistant strain of Mycobacterium smegmetis; test: microbe, parasite or virus in culture; settings: read-out: Activity of thymol (zone)
[14] = tested on: E. coli cells; test: microbe, parasite or virus in culture; settings: Escherichia coli
[15] = read-out: inhibition zones, CAN 102
[16] = read-out: inhibition zones, CAN 104
[17] = read-out: inhibition zones, CAN 105
[18] = read-out: inhibition zones, CAN 106
[19] = read-out: inhibition zones, CAN 107
[20] = read-out: inhibition zones, CAN 108
[21] = read-out: inhibition zones, CAN 109
[22] = read-out: inhibition zones, CAN 110
[23] = read-out: inhibition zones, CAN 111
[24] = read-out: inhibition zones, CAN 112
[25] = read-out: inhibition zones, CAN 113
[26] = read-out: inhibition zones, CAN 114
[27] = read-out: inhibition zones, CAN 115
[28] = read-out: inhibition zones, CAN 116
[29] = read-out: inhibition zones, CAN 117
[30] = read-out: inhibition zones, CAN 118
[31] = read-out: inhibition zones, CAN 119
[32] = read-out: inhibition zones, CAN 120
[33] = read-out: inhibition zones, CAN 121
[34] = read-out: inhibition zones, CAN 122
[35] = read-out: inhibition zones, CAN 123
[36] = read-out: inhibition zones, CAN 124
[37] = read-out: inhibition zones, CAN 125
[38] = read-out: inhibition zones, CAN 126

Cc1ccc(C(C)C)c(O)c1 [Thymol]
< 0.5 mm: zone of inhibition at 100 µg/disc ([2]; read-out: inhibition zones, MSL 106) | zone of inhibition at 12.5 µg/disc ([14]; thymol 12.5 μg/disc)
1.5 mm: zone of inhibition at 100 µg/disc ([6]; read-out: inhibition zones, CAN 101) | zone of inhibition at 100 µg/disc ([8]; read-out: inhibition zones, CAL 104, 100 μg/disc)
Tr.: inhibition zones ([6]; CAN 101) | inhibition zones ([6]; CAN 102) | inhibition zones ([6]; CAN 103) | inhibition zones ([6]; CAN 104) | inhibition zones ([6]; CAN 105) | inhibition zones ([6]; CAN 108) | inhibition zones ([6]; CAN 113) | inhibition zones ([6]; CAN 122)
6 mm: zone of inhibition at 100 µg/disc ([1]; pH 7.00) | zone of inhibition at 250 µg/disc [6, 16] | zone of inhibition at 250 µg/disc [6, 21] | zone of inhibition at 250 µg/disc [6, 22] | zone of inhibition at 250 µg/disc [6, 26] | zone of inhibition at 250 µg/disc [6, 31] | zone of inhibition at 250 µg/disc [6, 32] | zone of inhibition at 50000 µg/mL [11] | zone of inhibition at 100 µg/disc ([14]; thymol 100.0 μg/disc)
2.5 mm: zone of inhibition at 150000 µg/mL ([2]; read-out: inhibition zones, MSL 109, 150 mg/ml)
5.5 mm: zone of inhibition at 50000 µg/mL [9]
7 mm: zone of inhibition at 250 µg/disc [6, 15]
3 mm: zone of inhibition at 100 µg/disc ([1]; pH 9.00) | zone of inhibition at 50 µg/disc [4] | zone of inhibition at 150000 µg/mL ([5]; read-out: inhibition zones) | zone of inhibition at 100 µg/disc [6, 19] | zone of inhibition at 100 µg/disc [6, 21] | zone of inhibition at 100 µg/disc [6, 22] | zone of inhibition at 100 µg/disc [6, 23] | zone of inhibition at 100 µg/disc [6, 24] | zone of inhibition at 100 µg/disc [6, 26] | zone of inhibition at 100 µg/disc [6, 27] | zone of inhibition at 100 µg/disc [6, 28] | zone of inhibition at 100 µg/disc [6, 29] | zone of inhibition at 100 µg/disc [6, 30] | zone of inhibition at 100 µg/disc [6, 31] | zone of inhibition at 100 µg/disc [6, 32] | zone of inhibition at 100 µg/disc [6, 33] | zone of inhibition at 100 µg/disc [6, 35] | zone of inhibition at 100 µg/disc [6, 36] | zone of inhibition at 100 µg/disc [6, 37] | zone of inhibition at 100 µg/disc ([8]; read-out: inhibition zones, CAL 103, 100 μg/disc) | zone of inhibition at 20000 µg/mL [11] | zone of inhibition at 50 µg/disc ([14]; thymol 50.0 μg/disc)
trace: inhibition zone ([1]; 25 μg/disc, pH 4.00)
1 mm: zone of inhibition at 25 µg/disc ([1]; 25 μg/disc, pH 7.00) | zone of inhibition at 50 µg/disc ([1]; 1M NaOH) | zone of inhibition at 50 µg/disc ([1]; pH 9.00) | zone of inhibition at 100 µg/disc ([2]; read-out: inhibition zones, MSL 101) | zone of inhibition at 100 µg/disc ([2]; read-out: inhibition zones, MSL 102) | zone of inhibition at 100 µg/disc ([2]; read-out: inhibition zones, MSL 103) | zone of inhibition at 100 µg/disc ([2]; read-out: inhibition zones, MSL 104) | zone of inhibition at 100 µg/disc ([2]; read-out: inhibition zones, MSL 105) | zone of inhibition at 100 µg/disc ([2]; read-out: inhibition zones, MSL 107) | zone of inhibition at 100 µg/disc ([2]; read-out: inhibition zones, MSL 108) | zone of inhibition at 100 µg/disc ([2]; read-out: inhibition zones, MSL 109) | zone of inhibition at 100 µg/disc ([2]; read-out: inhibition zones, MSL 110) | zone of inhibition at 100 µg/disc ([2]; read-out: inhibition zones, MSL 111) | zone of inhibition at 100 µg/disc ([2]; read-out: inhibition zones, MSL 112) | zone of inhibition at 10000 µg/mL [3] | zone of inhibition at 50 µg/disc ([5]; read-out: inhibition zones) | zone of inhibition at 50 µg/disc [6, 18] | zone of inhibition at 50 µg/disc [6, 19] | zone of inhibition at 50 µg/disc [6, 21] | zone of inhibition at 50 µg/disc [6, 22] | zone of inhibition at 50 µg/disc [6, 23] | zone of inhibition at 50 µg/disc [6, 24] | zone of inhibition at 50 µg/disc [6, 26] | zone of inhibition at 50 µg/disc [6, 27] | zone of inhibition at 50 µg/disc [6, 28] | zone of inhibition at 50 µg/disc [6, 29] | zone of inhibition at 50 µg/disc [6, 30] | zone of inhibition at 50 µg/disc [6, 31] | zone of inhibition at 50 µg/disc [6, 32] | zone of inhibition at 50 µg/disc [6, 33] | zone of inhibition at 50 µg/disc [6, 35] | zone of inhibition at 50 µg/disc [6, 36] | zone of inhibition at 50 µg/disc [6, 37] | zone of inhibition at 50 µg/disc [6, 38] | zone of inhibition at 50 µg/disc ([8]; read-out: inhibition zones, CAL 104, 50 μg/disc)
4 mm: zone of inhibition at 100 µg/disc ([1]; pH 4.00) | zone of inhibition at 250 µg/disc ([3]; read-out: inhibition zones) | zone of inhibition at 250 µg/disc ([5]; read-out: inhibition zones) | zone of inhibition at 100 µg/disc ([8]; read-out: inhibition zones, CAL 101, 100 μg/disc) | zone of inhibition at 100 µg/disc ([8]; read-out: inhibition zones, CAL 105, 100 μg/disc) | zone of inhibition at 100 µg/disc ([8]; read-out: inhibition zones, CAL 106, 100 μg/disc) | zone of inhibition at 100 µg/disc ([8]; read-out: inhibition zones, CAL 107, 100 μg/disc)
11 mm: zone of inhibition at 100 µg/disc [13]
2 mm: zone of inhibition at 50 µg/disc ([1]; pH 4.00) | zone of inhibition at 50 µg/disc ([1]; pH 7.00) | zone of inhibition at 100 µg/disc ([1]; 1M NaOH) | zone of inhibition at 20000 µg/mL [3] | zone of inhibition at 100 µg/disc ([5]; read-out: inhibition zones) | zone of inhibition at 100 µg/disc [6, 15] | zone of inhibition at 100 µg/disc ([6]; read-out: inhibition zones, CAN 103) | zone of inhibition at 100 µg/disc [6, 16] | zone of inhibition at 100 µg/disc [6, 17] | zone of inhibition at 100 µg/disc [6, 18] | zone of inhibition at 100 µg/disc [6, 20] | zone of inhibition at 100 µg/disc [6, 25] | zone of inhibition at 100 µg/disc [6, 34] | zone of inhibition at 100 µg/disc [6, 38] | zone of inhibition at 50 µg/disc ([8]; read-out: inhibition zones, CAL 101, 50 μg/disc) | zone of inhibition at 50 µg/disc ([8]; read-out: inhibition zones, CAL 103, 50 μg/disc) | zone of inhibition at 50 µg/disc ([8]; read-out: inhibition zones, CAL 105, 50 μg/disc) | zone of inhibition at 50 µg/disc ([8]; read-out: inhibition zones, CAL 106, 50 μg/disc) | zone of inhibition at 50 µg/disc ([8]; read-out: inhibition zones, CAL 107, 50 μg/disc) | zone of inhibition at 100 µg/disc [12] | zone of inhibition at 25 µg/disc ([14]; thymol 25.0 μg/disc)
45%: increase of the antibacterial activity of thymol [10]
5 mm: zone of inhibition at 50000 µg/mL [3] | zone of inhibition at 250 µg/disc [6, 17] | zone of inhibition at 250 µg/disc [6, 19] | zone of inhibition at 250 µg/disc [6, 20] | zone of inhibition at 250 µg/disc [6, 23] | zone of inhibition at 250 µg/disc [6, 24] | zone of inhibition at 250 µg/disc [6, 25] | zone of inhibition at 250 µg/disc [6, 27] | zone of inhibition at 250 µg/disc [6, 28] | zone of inhibition at 250 µg/disc [6, 29] | zone of inhibition at 250 µg/disc [6, 30] | zone of inhibition at 250 µg/disc [6, 33] | zone of inhibition at 250 µg/disc [6, 34] | zone of inhibition at 250 µg/disc [6, 35] | zone of inhibition at 250 µg/disc [6, 36] | zone of inhibition at 250 µg/disc [6, 37] | zone of inhibition at 250 µg/disc [6, 38] | zone of inhibition at 100 µg/disc ([8]; read-out: inhibition zones, CAL 102, 100 μg/disc) | zone of inhibition at 100 µg/disc ([8]; read-out: inhibition zones, CAL 108, 100 μg/disc) | zone of inhibition at 75 µg/disc ([14]; thymol 75.0 μg/disc)
8 mm: zone of inhibition at 100 µg/disc ([5]; read-out: Activity of thymol (zone)) | zone of inhibition at 100 µg/disc [7]
